# Measured values from patent US20160295854A1, “COMPOSITION AND METHOD FOR EX-VIVO IMMUNOMODULATION AND/OR PRESERVATION OF ORGANS, METHODS AND USE” (UNIAO BRASILEIRA DE EDUCACAO E ASSISTENCIA , MANTENEDORA DA …, priority 2014, published 2016).
# How the values were obtained:
# ERK = assay: p-ERK intracellular marking in BMDCs; type: cell-based, mice (Mus musculus)
# MARCH-I = MARCH-I mRNA in DCs by real time PCR; type: cell-based, mice (Mus musculus)
# Protocol: The supernatants were collected and used for analyzing cytokine. The cells were further treated with 20 ng/ml of Rapamycin (Cell Signaling), 1 μg/ml of Cyclosporine A (Roche) or 20 ng/ml of IL-10 recombinant murine (R&D System) for 24 h and the total RNA was removed.
# The total RNA was isolated from the DCs treated using the kit RNAeasy (Qiagen), according to the manufacturer instructions. The total purified RNA concentration was determined with the kit Qubit® RNA Assay Kit (Invitrogen), read in the Qubit® Fluorometer (Invitrogen). 50 ng of the RNA had reverse transcriptase with 100 U of Sensiscript (Qiagen). DNA concentrations were determined with the kit Qubit® dsDNA HS Assay (Invitrogen), read in the Qubit® Fluorometer (Invitrogen). In a final volume of 10 μL, 8 ng of cDNA were applied using some assays Taqman® Gene Expression (Applied Biosystems): IL10 (Mm00439614_m1), March1 (Mm00613524_m1) and β-actin (4352933E), according to the manufacturer recommendations.
# The quantitative real time PCR was performed in the instrument StepOne™ Real-Time PCR System (Applied Biosystems). The relative levels of mRNA were calculated according to the comparative method of Ct, described by […] & LIVAK (2008). The β-actin constituent gene was used as setter. Non-treated DCs served as reference for OVA or Hsp70-treated DCs.
# After that, IL-10 mRNA levels were analyzed by Real-time PCR. The β-actin was used as a setter. The IL-10 concentration was measured in the cultures supernatant by flow cytometry. […] (C) As in A, however the MARCH-I mRNA levels were analyzed by Real-time PCR. […] DCs IL-10 KO were also treated with Recombinant IL-10. All treatments were performed for 24 h and MARCH-I mRNA levels were analyzed by Real-time PCR. […] After this period, grafts were sutured in the BALB/c animals' back and the acceptance was daily monitored. Graphs expressed on average ±SEM. *, p<0.05; **, p<0.01; ***, […]. n=3-5 mice per group. Representative results of 3 independent experiments.
# After this period, the MARCH-I expression increase was analyzed by Real-time PCR.
substance,measurement,setting,value
"Hsp70: recombinant Mycobacterium tuberculosis Hsp70 (DnaK) produced in Escherichia coli BL21, LPS removed",p-ERK levels in BMDCs (FIG. 13 A),"ERK; 30 μg/ml, after 15 minutes of stimulus, WT",increase in the phosphor ERK levels
same,p-ERK levels in TLR2 KO BMDCs (FIG. 13 B),"ERK; TLR2 KO BMDCs, 15 minutes",increase was not noted
same,MARCH-I mRNA levels in DCs IL-10 KO (FIG. 11 D),"MARCH-I; DCs from IL-10 knockout animals, 24 h, compared with DCs WT",did not present an increase
same,increase in the MARCH-I mRNA (FIG. 11 C),"MARCH-I; DCs isolated from LNs, 24 h",20 times
same,MARCH-I induction on DCs regarding the basal medium (FIG. 24),"MARCH-I; lymph node DCs, 24 hours, Hsp70 30 μg/mL, Rapamycin 20 ng/ml, Cyclosporine A 1 μg/ml, IL-10 20 ng/ml",only treatment able to induce MARCH-I
